In PubChem BioAssay AID608 (Sanford-Burnham Center for Chemical Genomics, 2007):
The source made the active and inactive calls. No rule for the calls is given here.

molecular target: Peptidyl-prolyl cis-trans isomerase FKBP1A (Homo sapiens) (UniProt P62942); experiment: FKBP12 binders, biophysical, NMR detection (AID 608); details: NMR binding, purified FKBP12
Sequence (P62942 whole entry, looked up): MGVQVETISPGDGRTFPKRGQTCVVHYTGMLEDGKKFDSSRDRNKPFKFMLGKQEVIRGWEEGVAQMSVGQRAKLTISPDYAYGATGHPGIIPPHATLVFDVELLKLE

Row | Compound | Kd
1 | Cc1cc(C)nc(/N=C(/N)N2CCC(C(N)=O)CC2)n1 | > 4 mM (inactive)
2 | Cc1nc(N2CCOCC2)[nH]c(=O)c1C | > 4 mM (inactive)
3 | Cn1nnc2cc(C(=O)NCc3ccco3)ccc21 | > 4 mM (inactive)
4 | NC(=O)C1CCN(CC2CC=CCC2)CC1 (stereo not given) | > 4 mM (inactive)
5 | Cc1ccccc1NC(=O)C1CCC(=O)N1 (stereo not given) | > 4 mM (inactive)
6 | CC(=O)Nn1c(=O)[nH]c2ccccc2c1=O | > 4 mM (inactive)
7 | COc1ccc2c(C)cc(=O)oc2c1 | > 4 mM (inactive)
8 | O=C(c1ccco1)N1CCn2c1nc1ccccc12 | > 4 mM (inactive)
9 | CC1=C2[C@H]3OC(=O)[C@@H](C)[C@@H]3CC[C@@]2(C)C=CC1=O | > 4 mM (inactive)
10 | COC(=O)[C@]1(C)CC[C@]2(C)CC[C@]3(C)C4=CC=C5C(=CC(=O)C(O)=C5C)[C@]4(C)CC[C@@]3(C)[C@@H]2C1 | > 4 mM (inactive)
11 | COc1ccccc1N1C(=N)SCC1=O | > 4 mM (inactive)
12 | CC1(C)CC[C@]2(C(=O)O)CC[C@]3(C)C(=CCC4[C@@]5(C)CC[C@H](O)[C@@](C)(CO)C5CC[C@]43C)C2C1 (stereo not given in full) | > 4 mM (inactive)
13 | NCc1ccc(-c2cccs2)cc1 | > 4 mM (inactive)
14 | CCSc1nnc(-c2ccccc2N)c(=O)[nH]1 | > 4 mM (inactive)
15 | Cn1c(NCc2ccccc2O)nc2ccccc21 | > 4 mM (inactive)
16 | O=C(CS(=O)(=O)c1ccccc1)Nc1nccs1 | > 4 mM (inactive)
17 | O=C1C=CC(=O)N1c1ccccc1O | > 4 mM (inactive)
18 | O=C(Nc1cccnc1)Nc1ccc2c(c1)OCO2 | > 4 mM (inactive)
19 | O=C1NC(=O)C(Cc2ccccc2)C(=O)N1 | > 4 mM (inactive)
20 | O=C1CCC(=O)N1CN1CCOCC1 | > 4 mM (inactive)
21 | c1ccn(Cc2ccncc2)c1 | > 4 mM (inactive)
22 | Cc1nnc(SCc2ccon2)n1-c1ccccc1 | 0.0385 mM
23 | O=C1c2ccncc2C(=O)N1CO | > 4 mM (inactive)
24 | COc1ccc(C(=O)NNC(=S)NC(C)=O)cc1 | > 4 mM (inactive)

Row | Compound | Kd
25 | COc1cccc(-c2csc(NC(C)=O)n2)c1 | > 4 mM (inactive)
26 | CCOC(=O)C1CCN(c2ncnc3nc[nH]c23)CC1 | > 4 mM (inactive)
27 | O=S1(=O)CCC(NC(=S)N2CCCCC2)C1 (stereo not given) | > 4 mM (inactive)
28 | COCC(=O)Nc1nc2ccc(C)cc2s1 | > 4 mM (inactive)
29 | CC(=O)c1c(C)nc(-c2ccc(Cl)cc2Cl)n1O | > 4 mM (inactive)
30 | O=C(Nc1ccc(N2CCCC2=O)cc1)c1cccc(F)c1 | > 4 mM (inactive)
31 | CC(=O)N(C)Cc1nc2ccccc2n1C | > 4 mM (inactive)
32 | Cc1cc(N)ccc1NC(=O)c1ccco1 | > 4 mM (inactive)
33 | Cc1ccn(S(=O)(=O)c2ccc(F)cc2)n1 | > 4 mM (inactive)
34 | COC1=CC(=O)C(O)=C/C1=C\C=C\c1ccccc1 | > 4 mM (inactive)
35 | O=C(Nc1ccccc1N1CCCC1)c1cccnc1 | > 4 mM (inactive)
36 | Nc1cccc(S(N)(=O)=O)c1 | > 4 mM (inactive)
37 | Cc1nnc(SCC(=O)NC2CCCC2)[nH]c1=O | > 4 mM (inactive)
38 | OC1COCc2nc3ccccc3n2C1 (stereo not given) | > 4 mM (inactive)
39 | O=C(NC(=S)NCCO)c1ccccc1 | > 4 mM (inactive)
40 | CNC(=S)Nc1cccc(C(=O)O)c1 | > 4 mM (inactive)
41 | COc1cc(C)c(Cl)cc1S(=O)(=O)N(C)C | > 4 mM (inactive)
42 | S=C=NCc1ccccc1 | > 4 mM (inactive)
43 | CC(=O)O[C@@H]1CC2C(C)(C)[C@H](O)C=C[C@]2(C)C2CC[C@]3(C)C(=CC(=O)O[C@H]3c3ccoc3)[C@@]21C (stereo not given in full) | > 4 mM (inactive)
44 | Cc1nnc(N2CCc3ccccc3C2)[nH]c1=O | > 4 mM (inactive)
45 | Cc1ccc2cccc(SCC(=O)N3CCOCC3)c2n1 | inactive
46 | O=C(Nc1ccc2c(c1)CCC2)c1cnccn1 | > 4 mM (inactive)
47 | O=C(O)C1CC(=O)N(Cc2cccs2)C1 (stereo not given) | > 4 mM (inactive)
48 | O=C(c1ccccc1-c1ccccc1)N1CCOCC1 | > 4 mM (inactive)

Row | Compound | Kd
49 | CS(=O)(=O)NC1CCN(Cc2ccccc2)CC1 | > 4 mM (inactive)
50 | CCNC(=S)Nc1c(C)n(C)n(-c2ccccc2)c1=O | > 4 mM (inactive)
51 | N=C1/C(=C\c2ccco2)C(=O)N=C2SC=NN12 | > 4 mM (inactive)
52 | O=C1CSC(c2ccc3c(c2)OCO3)N1 (stereo not given) | > 4 mM (inactive)
53 | O=C(Cc1c(F)cccc1Cl)Nc1ccon1 | > 4 mM (inactive)
54 | O=C(Nc1nncs1)Oc1ccccc1 | > 4 mM (inactive)
55 | NC(=O)COc1cccc2cccnc12 | > 4 mM (inactive)
56 | COc1cc(C)c2c(c1C=O)Oc1c(c(C)c(O)c3c1C(O)OC3=O)OC2=O (stereo not given) | > 4 mM (inactive)
57 | CN1CCN(c2cc(=O)n(C)c(=O)[nH]2)CC1 | > 4 mM (inactive)
58 | CN1CCN(CC(=O)Nc2ccccc2)CC1 | > 4 mM (inactive)
59 | COc1ccc2ccc(=O)oc2c1CC=C(C)C | > 4 mM (inactive)
60 | C[C@@H]1CC[C@]2(C(=O)O)CC[C@]3(C)C(=CCC4[C@@]5(C)CC[C@H](O)C(C)(C)C5CC[C@]43C)C2[C@H]1C (stereo not given in full) | > 4 mM (inactive)
61 | CC(=O)Nc1ccc(NC(=O)c2ccnn2C)cc1 | > 4 mM (inactive)
62 | O=C(O)CSc1nnc(-c2cccs2)o1 | > 4 mM (inactive)
63 | O=C1CS/C(=N/S(=O)(=O)c2ccccc2)N1 | > 4 mM (inactive)
64 | CC(C)(C)C(=O)N1CCCC1C(=O)O (stereo not given) | > 4 mM (inactive)
65 | Cc1cc(C)n(C/C=C/Cn2nc(C)cc2C)n1 | > 4 mM (inactive)
66 | CN(c1ccccc1C(=O)N1CCCC1)S(C)(=O)=O | > 4 mM (inactive)
67 | Nc1cc(F)cc(F)c1 | > 4 mM (inactive)
68 | O=C(Nc1nccs1)c1cccnc1 | > 4 mM (inactive)
69 | Cn1c(=O)c2[nH]cnc2n(C)c1=O | > 4 mM (inactive)
70 | Cc1nc(N)sc1C(=O)Nc1nccs1 | > 4 mM (inactive)
71 | C/C=C/COc1nc2c(c(=O)n(C)c(=O)n2C)n1C | > 4 mM (inactive)
72 | Cc1nc2ccc(NC(=O)N3CCSCC3)cc2s1 | > 4 mM (inactive)

Row | Compound | Kd
73 | CCOc1cc(C)c(Cl)cc1S(=O)(=O)N(C)C | > 4 mM (inactive)
74 | Cc1cc(S(=O)(=O)N2CCCC2)ccc1OCC(=O)N1CCOCC1 | inactive
75 | NC1=NC(=O)C(CC(=O)Nc2ccccc2F)S1 (stereo not given) | > 4 mM (inactive)
76 | OC1CC2CCC1C2 (stereo not given) | > 4 mM (inactive)
77 | NCc1cccc2c1OCCCO2 | > 4 mM (inactive)
78 | Cc1n[nH]c(C)c1N | > 4 mM (inactive)
79 | NS(=O)(=O)c1ccc(NC(=O)/C=C\C(=O)O)cc1 | > 4 mM (inactive)
80 | C=C[C@H]1CN2CC[C@H]1C[C@@H]2[C@H](O)c1ccnc2ccccc12 | > 4 mM (inactive)
81 | CC(=O)O[C@@H]1CC2C(C)(C)C(=O)C=C[C@]2(C)C2CC[C@]3(C)C(=CC(=O)O[C@H]3c3ccoc3)[C@@]21C (stereo not given in full) | > 4 mM (inactive)
82 | COc1ccccc1-c1cn[nH]c(=S)n1 | > 4 mM (inactive)
83 | Cc1ccc(N2CCN(C(=O)c3ccccc3)CC2)c(C)c1 | > 4 mM (inactive)
84 | O=c1n(-c2cccc(Cl)c2)c(=O)n2n1CCC2 | > 4 mM (inactive)
85 | Cc1nn(-c2ccccc2)nc1CN | > 4 mM (inactive)
86 | CCOc1ccc(NS(=O)(=O)N2CCOCC2)cc1 | > 4 mM (inactive)
87 | CC(=O)OC1CCC23CC1(C)CCC2C(C)(C)CC3OC(C)=O (stereo not given) | > 4 mM (inactive)
88 | O=c1n(-c2ccccc2)c(=O)n2n1CCCC2 | > 4 mM (inactive)
89 | COc1cccc(/C=C/C(=O)O)c1C(C)C | > 4 mM (inactive)
90 | Cn1c(=O)c2c(ncn2CCN)n(C)c1=O | > 4 mM (inactive)
91 | Cc1c(C(=O)Nc2ccccc2)sc(N)c1C(N)=O | > 4 mM (inactive)
92 | CC(C)(CO)NC(=O)c1ccccc1F | > 4 mM (inactive)
93 | CCCCCC/C=C\CCCCCCCc1cccc(O)c1C(=O)O | > 4 mM (inactive)
94 | NC(=O)Cc1nc(-c2ccccc2)cs1 | > 4 mM (inactive)
95 | CCOc1cc(S(=O)(=O)N2CCOCC2)ccc1F | > 4 mM (inactive)
96 | S=C(NCC1CCCO1)NC1CC1 (stereo not given) | > 4 mM (inactive)

Row | Compound | Kd
97 | CC1=C(C(=O)Nc2ccccc2)SCCO1 | > 4 mM (inactive)
98 | Cc1onc(-c2c(F)cccc2Cl)c1C(N)=O | > 4 mM (inactive)
99 | O=C(O)c1cn(-c2ccccc2)nc1-c1cccnc1 | > 4 mM (inactive)
100 | CC(=O)O[C@H]1C[C@@]2(C)[C@@H](C[C@@H](O)C3[C@]2(C)CC[C@H]2[C@H](C)[C@H](O)CC[C@]32C)/C1=C(/CCC=C(C)C)C(=O)O (stereo not given in full) | > 4 mM (inactive)
101 | CC(=O)C1CC[C@H]2C3CC[C@H]4C[C@H](O)CC[C@]4(C)C3CC[C@]12C (stereo not given in full) | > 4 mM (inactive)
102 | CCOC(=O)CC1Sc2ccccc2NC1=S (stereo not given) | > 4 mM (inactive)
103 | NCc1cccc2nsnc12 | > 4 mM (inactive)
104 | Cc1cc(C(=O)NC2=NCCS2)cs1 | > 4 mM (inactive)
105 | Cc1nc(NC2=NCCC(=O)N2)nc2ccccc12 | > 4 mM (inactive)
106 | COc1ccc(-c2nnsc2N)cc1 | > 4 mM (inactive)
107 | Cc1ccccc1C(=O)Nn1cnnc1 | > 4 mM (inactive)
108 | COc1ccc(-c2cc(=O)c3cc(OC)ccc3o2)cc1 | > 4 mM (inactive)
109 | O=C(c1sc2cc(F)ccc2c1Cl)N1CCOCC1 | inactive
110 | CN1CCC(NC(=O)c2cccnc2)CC1 | > 4 mM (inactive)
111 | CON(C)C(=O)Nc1ccc(Cl)cc1 | > 4 mM (inactive)
112 | O=C1CCC(=O)N1c1cccnc1 | > 4 mM (inactive)
113 | O=C(Nc1ccon1)c1ccc2c(c1)OCO2 | > 4 mM (inactive)
114 | COc1cc(-c2coc3cc(O[C@@H]4O[C@H](CO)[C@@H](O)[C@H](O)[C@H]4O)c(OC)c(O)c3c2=O)cc(O)c1OC | > 4 mM (inactive)
115 | CN1CCC(O)N1C(=O)c1ccccc1O (stereo not given) | > 4 mM (inactive)
116 | Nc1nc(SCC(=O)c2ccc([N+](=O)[O-])cc2)n[nH]1 | > 4 mM (inactive)
117 | Cc1oc(-c2ccccc2)cc1C(N)=O | > 4 mM (inactive)
118 | NC(=O)c1cccc2c1OCCO2 | > 4 mM (inactive)
119 | O=C(NC(=O)N1CCOCC1)c1ccccc1 | > 4 mM (inactive)
120 | CCCn1c(S(=O)(=O)O)nc2ccccc21 | > 4 mM (inactive)
